In the NIST ThermoML archive (doi:10.1021/acs.jced.8b00492):
± gives the expanded uncertainty stated by the source.

Columns and labels:
[1] = mn = molality of the nth substance listed, in mol/kg; settings: m2 = 0; for surface tension liquid-gas: Ring tensiometer; for viscosity / mass density / speed of sound: 100 kPa, Liquid; for viscosity: Capillary tube (Ostwald / Ubbelohde) method; for mass density: Vibrating tube method; for speed of sound: Frequency=3 MHz, Single path-length method
[2] = for surface tension liquid-gas: Ring tensiometer; for viscosity: 100 kPa, Liquid, Capillary tube (Ostwald / Ubbelohde) method

Row | SMILES | surface tension liquid-gas ([1]; 293.15 K) [mN/m] | viscosity ([1]; 293.15 K) [mPa·s] | surface tension liquid-gas ([1]; 303.15 K) [mN/m] | viscosity ([1]; 303.15 K) [mPa·s] | mass density ([1]; 303.15 K) [kg/m3] | surface tension liquid-gas ([1]; 313.15 K) [mN/m] | viscosity ([1]; 313.15 K) [mPa·s] | speed of sound ([1]; 313.15 K) [m/s] | mass density ([1]; 313.15 K) [kg/m3] | surface tension liquid-gas ([1]; 323.15 K) [mN/m] | viscosity ([1]; 323.15 K) [mPa·s] | speed of sound ([1]; 323.15 K) [m/s] | surface tension liquid-gas ([2]; 293.15 K) [mN/m] | viscosity ([2]; 293.15 K) [mPa·s] | surface tension liquid-gas ([2]; 303.15 K) [mN/m] | viscosity ([2]; 303.15 K) [mPa·s] | surface tension liquid-gas ([2]; 313.15 K) [mN/m] | viscosity ([2]; 313.15 K) [mPa·s] | surface tension liquid-gas ([2]; 323.15 K) [mN/m] | viscosity ([2]; 323.15 K) [mPa·s]
1 | O [water] + C1N2CN3CN1CN(C2)C3 | 72.6 ± 0.9 | 0.993 ± 0.05 | 71.1 ± 0.9 | 0.802 ± 0.05 | 995.9 ± 2 | 69.2 ± 0.9 | 0.661 ± 0.05 | 1529.1 ± 0.7 | 992.3 ± 2 | 67.7 ± 0.9 | 0.555 ± 0.05 | 1541.5 ± 0.7 | – | – | – | – | – | – | – | –
2 | O [water] | – | – | – | – | – | – | – | – | – | – | – | – | 72.6 ± 0.9 | 0.993 ± 0.05 | 71.1 ± 0.9 | 0.802 ± 0.05 | 69.2 ± 0.9 | 0.661 ± 0.05 | 67.7 ± 0.9 | 0.555 ± 0.05
